Legend:
ALOMY = assay: Post-emergence herbicidal action against ALOMY; format: in vivo, Alopecurus myosuroides; settings: 80 g/ha, visual assessment after about 3 weeks
Procedure, shortened: (§1)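 Weeds and crops grown in sandy loam in the greenhouse, treated post-emergence at the one-leaf stage (2–3 weeks after sowing). WP or EC formulations sprayed as aqueous suspension/emulsion at 600–800 l/ha water with 0.2% wetting agent. Visual % activity scored after about 3 weeks versus untreated controls (100% = dead, 0% = like control).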

AVEFA = assay: Post-emergence herbicidal action against AVEFA; format: in vivo, Avena fatua; settings: 80 g/ha, visual assessment after about 3 weeks
Procedure, shortened: as §1

DIGSA = assay: Post-emergence herbicidal action against DIGSA; format: in vivo, Digitaria sanguinalis; settings: 80 g/ha, visual assessment about 3 weeks after treatment vs untreated controls
Procedure, shortened: as §1

ECHCG = assay: Post-emergence herbicidal action against ECHCG; format: in vivo, Echinochloa crus-galli; settings: 80 g/ha, visual assessment about 3 weeks after treatment vs untreated controls
Procedure, shortened: as §1

LOLRI = assay: Post-emergence herbicidal action against LOLRI; format: in vivo, Lolium rigidum; settings: 80 g/ha, visual assessment about 3 weeks after treatment vs untreated controls
Procedure, shortened: as §1

SETVI = assay: Post-emergence herbicidal action against SETVI; format: in vivo, Setaria viridis; settings: 80 g/ha, visual assessment about 3 weeks after treatment vs untreated controls
Procedure, shortened: as §1

ABUTH = assay: Post-emergence herbicidal action against ABUTH; format: in vivo, Abutylon threophrasti; settings: 80 g/ha, visual assessment about 3 weeks after treatment vs untreated controls
Procedure, shortened: as §1

HORMU = assay: Post-emergence herbicidal action against HORMU; format: in vivo, Hordeum murinum; settings: 80 g/ha, visual assessment about 3 weeks after treatment vs untreated controls
Experimental: Seeds of monocotyledonous and dicotyledonous weed and crop plants are laid out in sandy loam soil in wood-fiber pots, covered with soil and cultivated in a greenhouse under good growth conditions. 2 to 3 weeks after sowing, the test plants are treated at the one-leaf stage. The compounds of the invention, formulated in the form of wettable powders (WP) or as emulsion concentrates (EC), are then sprayed onto the green parts of the plants as aqueous suspension or emulsion at a water application rate equating to 600 to 800 l/ha with addition of 0.2% wetting agent. After the test plants have been left to stand in the greenhouse under optimal growth conditions for about 3 weeks, the action of the preparations is assessed visually in comparison to untreated controls (herbicidal action in percent (%): 100% activity=the plants have died, 0% activity=like control plants).

Row | SMILES | Post-emergence action against ALOMY in % (ALOMY) [%] | Post-emergence action against AVEFA in % (AVEFA) [%] | Post-emergence action against DIGSA in % (DIGSA) [%] | Post-emergence action against ECHCG in % (ECHCG) [%] | Post-emergence action against LOLRI in % (LOLRI) [%] | Post-emergence action against SETVI in % (SETVI) [%] | Post-emergence action against ABUTH in % (ABUTH) [%] | Post-emergence action against HORMU in % (HORMU) [%]
1 | CC#Cc1cc(C)c(C2=C(OC(=O)C(C)C)C3(CCC(COCC)C3)NC2=O)c(Cl)c1 (centres unmarked) [Example P-03] | 100 | 100 | 100 | 100 | 100 | 100 | 80 | 100
2 | C#Cc1cc(Cl)c(C2=C(OC(=O)OCC)C3(CCC(COC)C3)NC2=O)c(OC)c1 (centres unmarked) [Example P-19] | 80 | 100 | 90 | 100 | 100 | 100 | – | 100
3 | CC#Cc1cc(C)c(C2=C(O)C3(CCC(COC)C3)NC2=O)c(Cl)c1 (centres unmarked) [Example I-12] | 100 | 100 | 100 | 100 | 100 | 100 | 90 | 100
4 | CC#Cc1cc(C)c(C2=C(O)C3(CCC(COC)C3)NC2=O)c(Cl)c1 (centres unmarked) [Example I-06] | 100 | 100 | 100 | 100 | 100 | 100 | 80 | 100
5 | CC#Cc1cc(C)c(C2=C(OC(=O)OCC)C3(CCC(COCC)C3)NC2=O)c(Cl)c1 (centres unmarked) [Example P-09] | 100 | 100 | 100 | 100 | 100 | 100 | – | 100
6 | CC#Cc1cc(Cl)c(C2=C(OC(=O)C(C)C)C3(CCC(COC)C3)NC2=O)c(CC)c1 (centres unmarked) [Example P-14] | 100 | 100 | 100 | 100 | 100 | 100 | 90 | 100
7 | CC#Cc1cc(C)c(C2=C(O)C3(CCC(COCC)C3)NC2=O)c(Cl)c1 (centres unmarked) [Example I-09] | 100 | 100 | 100 | 100 | 100 | 100 | – | 100
8 | CC#Cc1cc(Cl)c(C2=C(OC(=O)C(C)C)C3(CCC(COC)C3)NC2=O)c(CC)c1 (centres unmarked) [Example P-22] | 100 | 100 | 100 | 100 | 100 | 100 | – | 100
9 | CC#Cc1cc(Cl)c(C2=C(O)C3(CCC(COCC)C3)NC2=O)c(CC)c1 (centres unmarked) [Example I-15] | 100 | 100 | 100 | 100 | 100 | 100 | – | 100
10 | CC#Cc1cc(Cl)c(C2=C(O)C3(CCC(COC)C3)NC2=O)c(CC)c1 (centres unmarked) [Example I-16] | 100 | 100 | 100 | 100 | 100 | 100 | – | 100
11 | CC#Cc1cc(Cl)c(C2=C(OC(=O)C(C)C)C3(CCC(COCC)C3)NC2=O)c(CC)c1 (centres unmarked) [Example P-12] | 100 | 100 | 100 | 100 | 100 | 100 | – | 100
12 | CC#Cc1cc(Cl)c(C2=C(OC(=O)OCC)C3(CCC(COCC)C3)NC2=O)c(CC)c1 (centres unmarked) [Example P-20] | 100 | 100 | 100 | 100 | 100 | 100 | – | 100
13 | CC#Cc1cc(C)c(C2=C(OC(=O)OCC)C3(CCC(COC)C3)NC2=O)c(Cl)c1 (centres unmarked) [Example P-24] | 100 | 100 | 100 | 100 | 100 | 100 | – | 100
14 | CC#Cc1cc(Cl)c(C2=C(O)C3(CCC(COC)C3)NC2=O)c(CC)c1 (centres unmarked) [Example I-04] | 100 | 100 | 100 | 100 | 100 | 100 | – | 100
15 | C#Cc1cc(Cl)c(C2=C(O)C3(CCC(COC)C3)NC2=O)c(OC)c1 (centres unmarked) [Example I-13] | 100 | 90 | 100 | 100 | 90 | 100 | – | 90
16 | C#Cc1cc(Cl)c(C2=C(O)C3(CCC(COCC)C3)NC2=O)c(OC)c1 (centres unmarked) [Example I-14] | 90 | 90 | 90 | 90 | 90 | 90 | – | 90
17 | CC#Cc1cc(Cl)c(C2=C(OC(=O)OCC)C3(CCC(COC)C3)NC2=O)c(CC)c1 (centres unmarked) [Example P-06] | 100 | 100 | 100 | 100 | 100 | 100 | – | 100
18 | C#Cc1cc(Cl)c(C2=C(OC(=O)OCC)C3(CCC(COC)C3)NC2=O)c(OC)c1 (centres unmarked) [Example P-02] | 100 | 100 | 100 | 100 | 100 | 100 | – | 100
19 | C#Cc1cc(Cl)c(C2=C(O)C3(CCC(COC)C3)NC2=O)c(OC)c1 (centres unmarked) [Example I-01] | 100 | 90 | 90 | 90 | 100 | 90 | – | 100
20 | CC#Cc1cc(Cl)c(C2=C(O)C3(CCC(COCC)C3)NC2=O)c(CC)c1 (centres unmarked) [Example I-03] | 100 | 100 | 100 | 100 | 100 | 100 | – | 100
21 | CC#Cc1cc(Cl)c(C2=C(O)C3(CCC(COCC)C3)NC2=O)c(OC)c1 (centres unmarked) [Example I-07] | 100 | 100 | 100 | 100 | 100 | 100 | – | 100
22 | CC#Cc1cc(Cl)c(C2=C(OC(=O)C(C)C)C3(CCC(COCC)C3)NC2=O)c(CC)c1 (centres unmarked) [Example P-07] | 100 | 100 | 100 | 100 | 100 | 100 | – | 100

— US20220386606A1, “SPECIFICALLY SUBSTITUTED 3-PHENYL-5-SPIROCYCLOPENTYL-3-PYRROLIN-2-ONES AND THEIR USE AS HERBICIDES” (Bayer Aktiengesellschaft, priority 2019, published 2022)
